# Results from patent publication US20260274892A1, “MACROCYCLIC BROAD SPECTRUM ANTIBIOTICS” (RQx Pharmaceuticals, Inc., priority 2017, published 2026).
# What was measured:
# [1] = system: Methicillin Resistant Staphylococcus aureus strain USA 200; experiment: Minimum inhibitory concentration (MIC), CLSI broth micro-dilution, S. aureus; format: cell-based; details: Staphylococcus aureus, MRSA / USA200; Table 6; MRSA USA 200; cation adjusted Mueller Hinton Broth + 0.002% Tween-80; 35° C., 22 hours
# How it was run: (§1)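 Antibacterial potency is measured as MIC by the CLSI broth dilution method. Bacteria at OD600 0.0005 in Tween-80-supplemented cation-adjusted Mueller Hinton broth face ten twofold compound dilutions for 22 h at 35° C.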
# [2] = system: Escherichia coli ATCC 25922; experiment: Minimum inhibitory concentration (MIC), CLSI broth micro-dilution, E. coli; format: cell-based; details: Escherichia coli, ATCC25922, 22 h, Table 6, cation adjusted Mueller Hinton Broth + 0.002% Tween-80, 35° C.
# How it was run: as §1
Compound,MIC [1],MIC [2]
"Cc1nc2ccc(Oc3ccc(C(C)(C)C)cc3)cc2cc1C(=O)N[C@@H](CCN)C(=O)N(C)[C@@H]1C(=O)N[C@@H](C)C(=O)N[C@H](C(=O)NCC#N)Cc2ccc(OCCN)c(c2)-c2cc1ccc2OCCN (racemic) [Compound 397, rac-(8S,11S,14S)-3,18-bis(2-aminoethoxy)-N-(cyanomethyl)-11-methyl-14-[methyl-[rac-(2S)-4-amino-2-[[6-(4-tert-butylphenoxy)-2-methyl-quinoline-3-carbonyl]amino]butanoyl]amino]-10,13-dioxo-9,12-diazatricyclo[13.3.1.12,6]icosa-1(18),2(20),3,5,15(19),16-hexaene-8-carboxamide]",0.023 µM,0.38 µM
"CCCCCCc1ccc2nc(C)c(C(=O)N[C@@H](CCN)C(=O)N(C)[C@@H]3C(=O)N[C@@H](C)C(=O)N[C@H](C(=O)NCC#N)Cc4ccc(OCCN)c(c4)-c4cc3ccc4OCCN)c(C)c2c1 (racemic) [Compound 399, rac-(8S,11S,14S)-3,18-bis(2-aminoethoxy)-N-(cyanomethyl)-11-methyl-14-[methyl-[rac-(2S)-4-amino-2-[(6-hexyl-2,4-dimethyl-quinoline-3-carbonyl)amino]butanoyl]amino]-10,13-dioxo-9,12-diazatricyclo[13.3.1.12,6]icosa-1(18),2(20),3,5,15(19),16-hexaene-8-carboxamide]",0.0078 µM,0.5 µM
"Cc1nc(-c2ccc(C(C)(C)C)cc2)c(Br)cc1C(=O)N[C@@H](CCN)C(=O)N(C)[C@@H]1C(=O)N[C@@H](C)C(=O)N[C@H](C(=O)NCC#N)Cc2ccc(OCCN)c(c2)-c2cc1ccc2OCCN (racemic) [Compound 401, rac-(8S,11S,14S)-3,18-bis(2-aminoethoxy)-N-(cyanomethyl)-11-methyl-14-[methyl-[rac-(2S)-4-amino-2-[[5-bromo-6-(4-tert-butylphenyl)-2-methyl-pyridine-3-carbonyl]amino]butanoyl]amino]-10,13-dioxo-9,12-diazatricyclo[13.3.1.12,6]icosa-1(18),2(20),3,5,15(19),16-hexaene-8-carboxamide]",0.016 µM,0.25 µM
"Cc1cc(C(=O)N[C@@H](CCN)C(=O)N(C)[C@@H]2C(=O)N[C@@H](C)C(=O)N[C@H](C(=O)NCC#N)Cc3ccc(OCCN)c(c3)-c3cc2ccc3OCCN)c(C)nc1-c1ccc(C(C)(C)C)cc1 (racemic) [Compound 402, rac-(8S,11S,14S)-3,18-bis(2-aminoethoxy)-N-(cyanomethyl)-11-methyl-14-[methyl-[rac-(2S)-4-amino-2-[[6-(4-tert-butylphenyl)-2,5-dimethyl-pyridine-3-carbonyl]amino]butanoyl]amino]-10,13-dioxo-9,12-diazatricyclo[13.3.1.12,6]icosa-1(18),2(20),3,5,15(19),16-hexaene-8-carboxamide]",0.031 µM,0.38 µM
"Cc1nc(-c2ccc(C(C)(C)C)cc2)c(O)cc1C(=O)N[C@@H](CCN)C(=O)N(C)[C@@H]1C(=O)N[C@@H](C)C(=O)N[C@H](C(=O)NCC#N)Cc2ccc(OCCN)c(c2)-c2cc1ccc2OCCN (racemic) [Compound 404, rac-(8S,11S,14S)-3,18-bis(2-aminoethoxy)-N-(cyanomethyl)-11-methyl-14-[methyl-[rac-(2S)-4-amino-2-[[6-(4-tert-butylphenyl)-5-hydroxy-2-methyl-pyridine-3-carbonyl]amino]butanoyl]amino]-10,13-dioxo-9,12-diazatricyclo[13.3.1.12,6]icosa-1(18),2(20),3,5,15(19),16-hexaene-8-carboxamide]",0.094 µM,0.38 µM
"Cc1nc(-c2ccc(C(C)(C)C)cc2)c(N)cc1C(=O)N[C@@H](CCN)C(=O)N(C)[C@@H]1C(=O)N[C@@H](C)C(=O)N[C@H](C(=O)NCC#N)Cc2ccc(OCCN)c(c2)-c2cc1ccc2OCCN (racemic) [Compound 405, rac-(8S,11S,14S)-3,18-bis(2-aminoethoxy)-N-(cyanomethyl)-11-methyl-14-[methyl-[rac-(2S)-4-amino-2-[[5-amino-6-(4-tert-butylphenyl)-2-methyl-pyridine-3-carbonyl]amino]butanoyl]amino]-10,13-dioxo-9,12-diazatricyclo[13.3.1.12,6]icosa-1(18),2(20),3,5,15(19),16-hexaene-8-carboxamide]",0.063 µM,0.38 µM
"Cc1nc(-c2ccc(C(C)(C)C)cc2)c([N+](=O)[O-])cc1C(=O)N[C@@H](CCN)C(=O)N(C)[C@@H]1C(=O)N[C@@H](C)C(=O)N[C@H](C(=O)NCC#N)Cc2ccc(OCCN)c(c2)-c2cc1ccc2OCCN (racemic) [Compound 406, rac-(8S,11S,14S)-3,18-bis(2-aminoethoxy)-N-(cyanomethyl)-11-methyl-14-[methyl-[rac-(2S)-4-amino-2-[[6-(4-tert-butylphenyl)-2-methyl-5-nitro-pyridine-3-carbonyl]amino]butanoyl]amino]-10,13-dioxo-9,12-diazatricyclo[13.3.1.12,6]icosa-1(18),2(20),3,5,15(19),16-hexaene-8-carboxamide]",0.023 µM,0.25 µM

# More lines, in order of falling MIC [1], values ahead:
MIC [1],MIC [2],Compound
0.047 µM,0.25 µM,"CCCCCCc1ccc2cc(C)c(C(=O)N[C@@H](CCN)C(=O)N(C)[C@@H]3C(=O)N[C@@H](C)C(=O)N[C@H](C(=O)NCC#N)Cc4ccc(OCCN)c(c4)-c4cc3ccc4OCCN)cc2c1 (racemic) [Compound 400, rac-(8S,11S,14S)-3,18-bis(2-aminoethoxy)-N-(cyanomethyl)-11-methyl-14-[methyl-[rac-(2S)-4-amino-2-[(7-hexyl-3-methyl-naphthalene-2-carbonyl)amino]butanoyl]amino]-10,13-dioxo-9,12-diazatricyclo[13.3.1.12,6]icosa-1(18),2(20),3,5,15(19),16-hexaene-8-carboxamide]"
0.025 µM,0.27 µM,"CCCCCCc1cnc2cc(C(=O)N[C@@H](CCN)C(=O)N(C)[C@@H]3C(=O)N[C@@H](C)C(=O)N[C@H](C(=O)NCC#N)Cc4ccc(OCCN)c(c4)-c4cc3ccc4OCCN)c(C)nc2c1 (racemic) [Compound 398, rac-(8S,11S,14S)-3,18-bis(2-aminoethoxy)-N-(cyanomethyl)-11-methyl-14-[methyl-[rac-(2S)-4-amino-2-[(7-hexyl-2-methyl-1,5-naphthyridine-3-carbonyl)amino]butanoyl]amino]-10,13-dioxo-9,12-diazatricyclo[13.3.1.12,6]icosa-1(18),2(20),3,5,15(19),16-hexaene-8-carboxamide]"
0.016 µM,0.5 µM,"COc1cc(C(=O)N[C@@H](CCN)C(=O)N(C)[C@@H]2C(=O)N[C@@H](C)C(=O)N[C@H](C(=O)NCC#N)Cc3ccc(OCCN)c(c3)-c3cc2ccc3OCCN)c(C)nc1-c1ccc(C(C)(C)C)cc1 (racemic) [Compound 403, rac-(8S,11S,14S)-3,18-bis(2-aminoethoxy)-N-(cyanomethyl)-11-methyl-14-[methyl-[rac-(2S)-4-amino-2-[[6-(4-tert-butylphenyl)-5-methoxy-2-methyl-pyridine-3-carbonyl]amino]butanoyl]amino]-10,13-dioxo-9,12-diazatricyclo[13.3.1.12,6]icosa-1(18),2(20),3,5,15(19),16-hexaene-8-carboxamide]"
